# According to ChEMBL document CHEMBL1201862, “PubChem BioAssay data set” (2004):
# Active and inactive are the calls of the source.
# Key:
# [1] = target: DNA dC->dU-editing enzyme APOBEC-3G (Homo sapiens, UniProt Q9HC16); type: functional;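 note: Dose-response counterscreen measuring inhibition of APOBEC3G DNA deaminase activity, run while confirming APOBEC3A inhibitors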
# [2] = target: DNA dC->dU-editing enzyme APOBEC-3A (Homo sapiens, UniProt P31941); assay: Dose Response confirmation of small molecule APOBEC3A DNA Deaminase Inhibitors via a fluorescence-based single-stranded DNA deaminase assay. [Related pubchem assays (depositor defined):AID493011, AID493024]; type: functional
# Vero [3] = assay: cells; type: functional, cell-based; conditions: Chlorocebus sabaeus
# Vero [4] = assay: cells; type: functional; conditions: Chlorocebus sabaeus
# Cytochrome P450 2C9 = Cytochrome P450 2C9 (Homo sapiens, UniProt P11712)
# Cytochrome P450 2C19 = Cytochrome P450 2C19 (Homo sapiens, UniProt P33261); assay: Cytochrome panel assay with activity outcomes. Panel member name: p450-cyp2c19 Compounds with AC50 equal or less than 10 uM are considered active; type: functional; conditions: read-out: AC50
# [5] = miR-122 activators in hepatoma reporter cells, dose response, cell-based, Huh7 psiCHECK-miR122, Renilla luciferase, cherry-picked (AID 651956); type: functional;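 note: huh7 hepatoma cells stably carrying a psiCHECK-2 miR-122 sensor plasmid; renilla luciferase signal reporting endogenous miR-122 activity after 48 h compound exposure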
# Cytochrome P450 3A4 = Cytochrome P450 3A4 (Homo sapiens, UniProt P08684);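 note: CYP3A4 tested as one member of a cytochrome P450 panel screen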
# HEK293 [6] = assay: cells; type: functional, cell-based; conditions: Homo sapiens
# [7] = target: Nucleotide-binding oligomerization domain-containing protein 2 (Homo sapiens, UniProt Q9HC29); assay: NOD2 signaling inhibitors, cell-based, luminescence, uHTS, HEK293 (AID 1566); type: functional
# HEK293 [8] = assay: NOD1 signaling inhibitors, primary screen, cell-based, luminescence, uHTS (AID 1578); type: functional; conditions: Homo sapiens
# HEK293 [9] = assay: NOD2 signaling inhibitors in MDP-stimulated cells, cell-based, uHTS, luminescence (AID 2001); type: functional; conditions: Homo sapiens
# HEK293 [10] = assay: cells; type: functional, cell-based; conditions: Homo sapiens; remark: listed apart in the source
# HEK293 [11] = assay: cells; type: functional, cell-based; conditions: Homo sapiens; remark: listed apart in the source
# [12] = target: T1, Orexin/Hypocretin receptor type 1 (Homo sapiens, UniProt O43613); assay: (§1) Fluorescence-based cell-based high throughput dose response assay for antagonists of the orexin 1 receptor (OX1R; HCRTR1). [Related pubchem assays (depositor defined):AID434989, AID435008, AID463079, AID485270, AID492963, AID492964, AID492965, AID493232, AID504717, AID504718]; type: functional
# T1 sequence (O43613 whole entry): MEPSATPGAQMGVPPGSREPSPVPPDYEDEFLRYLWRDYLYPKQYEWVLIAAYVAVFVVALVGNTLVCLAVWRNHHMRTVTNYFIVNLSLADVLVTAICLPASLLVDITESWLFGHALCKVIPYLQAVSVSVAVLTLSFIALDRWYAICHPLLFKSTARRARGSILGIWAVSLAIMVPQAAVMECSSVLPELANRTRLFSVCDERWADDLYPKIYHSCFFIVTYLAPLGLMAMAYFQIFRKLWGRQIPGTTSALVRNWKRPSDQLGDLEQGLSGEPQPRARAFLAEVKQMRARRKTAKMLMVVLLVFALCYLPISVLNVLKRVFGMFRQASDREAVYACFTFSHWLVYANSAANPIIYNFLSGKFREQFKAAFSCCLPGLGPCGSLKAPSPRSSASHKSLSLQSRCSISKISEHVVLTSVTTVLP
# Orexin receptor type 2 [13] = target: T2, Orexin receptor type 2 (Homo sapiens, UniProt O43614); assay: Counterscreen assay for antagonists of the orexin 1 receptor (OX1R; HCRTR1): Fluorescence-based cell-based dose response assay for antagonists of the orexin 2 receptor (OX2R; HCRTR2), run by assay provider.; type: functional
# T2 sequence (O43614 whole entry): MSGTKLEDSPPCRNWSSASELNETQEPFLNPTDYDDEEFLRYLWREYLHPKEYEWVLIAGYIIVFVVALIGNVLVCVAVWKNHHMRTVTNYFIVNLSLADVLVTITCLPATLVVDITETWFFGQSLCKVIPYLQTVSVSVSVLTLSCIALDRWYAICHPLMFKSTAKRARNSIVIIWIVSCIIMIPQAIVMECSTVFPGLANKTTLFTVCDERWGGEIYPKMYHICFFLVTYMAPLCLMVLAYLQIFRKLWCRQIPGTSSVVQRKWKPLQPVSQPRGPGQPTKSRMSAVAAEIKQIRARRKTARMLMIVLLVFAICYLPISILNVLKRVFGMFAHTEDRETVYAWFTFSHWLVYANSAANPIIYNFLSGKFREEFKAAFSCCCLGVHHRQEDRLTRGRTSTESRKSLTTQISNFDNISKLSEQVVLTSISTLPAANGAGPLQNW
# [14] = target: T1, Orexin/Hypocretin receptor type 1; assay: as §1, with “Homogeneous Time Resolved Fluorescence (HTRF)-based” for “Fluorescence-based”; type: functional
# [15] = (§2) Counterscreen for antagonists of the orexin 1 receptor (OX1R; HCRTR1): Fluorescence-based cell-based high throughput dose response assay to identify antagonists of the parental CHO cell line. [Related pubchem assays (depositor defined):AID434989, AID435008, AID463079, AID485270, AID492963, AID492964, AID492965, AID493232, AID504699, AID504701]; type: functional
# CHO-K1 = assay: as §2, with “Homogeneous time resolved fluorescence (HTRF)-based” for “Fluorescence-based”, “cell-based” for “cell-based high throughput”, “CHO-K1” for “CHO”; type: functional; conditions: Cricetulus griseus;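 note: potency for inhibition of ATP-stimulated IP1 production as antagonists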
# Orexin receptor type 2 [16] = target: T2, Orexin receptor type 2; assay: Counterscreen assay for antagonists of the orexin 1 receptor (OX1R; HCRTR1): Homogeneous Time Resolved Fluorescence (HTRF)-based cell-based dose response assay for antagonists of the orexin 2 receptor (OX2R; HCRTR2), run by assay provider.; type: functional
# cells [17] = type: functional
# [18] = THP-1 cell cytotoxicity, dose response, cytotoxicity control for non-replicating M. tuberculosis project (AID 489025); type: functional
# [19] = Vero E6 cell cytotoxicity, dose response, cytotoxicity control for non-replicating M. tuberculosis project, secondary assay (AID 492998); type: functional, VeroE6; conditions: Vero C1008
# [20] = target: T3, Microphthalmia-associated transcription factor (Homo sapiens, UniProt O75030); assay: TRPM1 promoter luciferase signal decrease, dose response, MITF inhibitor project, cell-based, SK-MEL-5, cherry-picked, set 3 (AID 493073); type: functional
# T3 sequence (O75030 whole entry): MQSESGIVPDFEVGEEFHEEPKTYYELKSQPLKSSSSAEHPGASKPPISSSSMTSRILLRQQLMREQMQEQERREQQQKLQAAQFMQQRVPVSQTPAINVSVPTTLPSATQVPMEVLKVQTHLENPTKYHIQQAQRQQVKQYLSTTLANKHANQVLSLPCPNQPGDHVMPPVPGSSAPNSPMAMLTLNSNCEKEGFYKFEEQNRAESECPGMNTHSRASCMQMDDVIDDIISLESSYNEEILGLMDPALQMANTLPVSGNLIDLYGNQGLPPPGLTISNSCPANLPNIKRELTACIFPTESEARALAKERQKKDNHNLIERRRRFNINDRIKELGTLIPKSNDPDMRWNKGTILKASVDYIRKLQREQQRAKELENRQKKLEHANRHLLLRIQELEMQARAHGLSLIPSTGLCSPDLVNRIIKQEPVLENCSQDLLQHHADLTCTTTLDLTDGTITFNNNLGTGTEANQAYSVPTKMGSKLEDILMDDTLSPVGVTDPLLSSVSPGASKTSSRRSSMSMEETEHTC
# [21] = cytotoxicity toward NIH3T3 fibroblasts, dose response, counter-screen, cell-based, ATP luminescence, mouse fibroblasts (AID 2010); type: functional;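 note: cells exposed to compound for about 90 hours before reading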
# [22] = inhibitors of intracellular T. cruzi replication, confirmation, NIH3T3 host cells, beta-gal luminescence (AID 2044); type: functional, cell-based;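 note: intracellular parasites grown in NIH/3T3 mouse fibroblasts as host cells; luminescent beta-galactosidase reporter signal from transgenic T. cruzi replicating inside host cells; inhibitors lower the luminescence signal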
# Cytochrome P450 2D6 = Cytochrome P450 2D6 (Homo sapiens, UniProt P10635);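 note: CYP2D6 member of a cytochrome P450 panel assay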
# [23] = target: FAD-linked sulfhydryl oxidase ALR (Homo sapiens, UniProt P55789); assay: inhibitors of human ALR sulfhydryl oxidase, dose response, biochemical, H2O2 detection, luminescence, cherry-pick (AID 493248)
# [24] = target: Peroxisome proliferator-activated receptor gamma/Nuclear receptor coactivator 2 (Homo sapiens, UniProt P37231); assay: (§3) TR-FRET dose response biochemical High Throughput Screening assay for agonists of the steroid receptor coactivator 2 (SRC-2) recruitment by the peroxisome proliferator-activated receptor gamma (PPAR gamma): non-selective agonists. [Related pubchem assays: 1297, 1032 ]; type: functional
# [25] = target: Peroxisome proliferator-activated receptor gamma/Nuclear receptor coactivator 1 (Homo sapiens, UniProt P37231); assay: as §3, with “1 (SRC-1)” for “2 (SRC-2)”, “assays (depositor defined):AID1300, AID1808, AID504735, AID631]” for “assays: 1297, 1032 ]”; type: protein assay
# [26] = target: Peroxisome proliferator-activated receptor gamma/Nuclear receptor coactivator 3 (Homo sapiens, UniProt P37231); assay: as §3, with “3 (SRC-3)” for “2 (SRC-2)”, “1301 (Confirmation screen.), 1048 (Primary screen.)]” for “1297, 1032 ]”; type: functional
# cells [27] = type: functional, cell-based
# [28] = HEp-2 cell cytotoxicity, dose response, cytotoxicity control for RSV inhibitor project, HTS (AID 2410); type: functional; conditions: human respiratory syncytial virus
# cells [29] = assay: cells
# Chain of DNA dC->dU-editing enzyme APOBEC-3A (P31941 whole entry): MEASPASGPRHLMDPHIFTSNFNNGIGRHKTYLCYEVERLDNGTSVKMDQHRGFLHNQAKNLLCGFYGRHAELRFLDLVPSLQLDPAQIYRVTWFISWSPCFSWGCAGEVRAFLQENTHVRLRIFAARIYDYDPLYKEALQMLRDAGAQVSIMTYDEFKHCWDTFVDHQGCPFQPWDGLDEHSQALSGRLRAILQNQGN
# Chain of DNA dC->dU-editing enzyme APOBEC-3G (Q9HC16 whole entry): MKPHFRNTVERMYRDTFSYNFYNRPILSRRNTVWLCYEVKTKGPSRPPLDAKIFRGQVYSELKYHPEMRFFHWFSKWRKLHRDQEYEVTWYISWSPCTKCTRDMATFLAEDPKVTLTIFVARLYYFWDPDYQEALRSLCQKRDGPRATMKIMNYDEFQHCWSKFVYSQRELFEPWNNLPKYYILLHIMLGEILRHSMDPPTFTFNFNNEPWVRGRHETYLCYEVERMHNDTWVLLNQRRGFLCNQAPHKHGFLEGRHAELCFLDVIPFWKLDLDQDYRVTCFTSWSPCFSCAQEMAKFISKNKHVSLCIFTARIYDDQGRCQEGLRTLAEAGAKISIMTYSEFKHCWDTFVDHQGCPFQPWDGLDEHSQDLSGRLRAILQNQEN
# Chain of Cytochrome P450 2C9 (P11712 whole entry): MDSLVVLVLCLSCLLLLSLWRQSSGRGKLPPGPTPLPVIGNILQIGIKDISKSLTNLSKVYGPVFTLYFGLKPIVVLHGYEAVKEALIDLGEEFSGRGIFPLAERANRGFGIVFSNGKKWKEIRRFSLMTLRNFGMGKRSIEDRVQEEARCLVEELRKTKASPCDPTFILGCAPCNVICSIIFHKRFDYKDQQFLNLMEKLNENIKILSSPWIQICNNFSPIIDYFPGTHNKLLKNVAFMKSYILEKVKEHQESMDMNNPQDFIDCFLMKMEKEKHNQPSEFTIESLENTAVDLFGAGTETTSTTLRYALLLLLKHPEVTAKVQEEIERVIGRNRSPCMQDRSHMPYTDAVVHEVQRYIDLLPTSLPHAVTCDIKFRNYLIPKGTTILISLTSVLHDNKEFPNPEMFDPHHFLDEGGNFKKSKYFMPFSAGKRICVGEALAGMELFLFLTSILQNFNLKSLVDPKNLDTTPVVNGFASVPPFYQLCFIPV
# Chain of Cytochrome P450 2C19 (P33261 whole entry): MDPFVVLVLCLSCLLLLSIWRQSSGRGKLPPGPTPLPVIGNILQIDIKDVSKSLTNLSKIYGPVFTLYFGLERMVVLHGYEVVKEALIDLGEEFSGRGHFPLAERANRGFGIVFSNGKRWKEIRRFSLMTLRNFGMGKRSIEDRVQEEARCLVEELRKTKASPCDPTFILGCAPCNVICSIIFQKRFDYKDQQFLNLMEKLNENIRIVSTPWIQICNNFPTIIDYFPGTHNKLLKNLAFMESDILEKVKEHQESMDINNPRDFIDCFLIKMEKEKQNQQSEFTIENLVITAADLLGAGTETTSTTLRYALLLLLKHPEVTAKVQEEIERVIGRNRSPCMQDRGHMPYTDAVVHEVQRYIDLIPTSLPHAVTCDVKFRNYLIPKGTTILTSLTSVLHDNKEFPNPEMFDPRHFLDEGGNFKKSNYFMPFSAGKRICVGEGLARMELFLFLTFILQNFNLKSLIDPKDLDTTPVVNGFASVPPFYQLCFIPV
# Chain of Cytochrome P450 3A4 (P08684 whole entry): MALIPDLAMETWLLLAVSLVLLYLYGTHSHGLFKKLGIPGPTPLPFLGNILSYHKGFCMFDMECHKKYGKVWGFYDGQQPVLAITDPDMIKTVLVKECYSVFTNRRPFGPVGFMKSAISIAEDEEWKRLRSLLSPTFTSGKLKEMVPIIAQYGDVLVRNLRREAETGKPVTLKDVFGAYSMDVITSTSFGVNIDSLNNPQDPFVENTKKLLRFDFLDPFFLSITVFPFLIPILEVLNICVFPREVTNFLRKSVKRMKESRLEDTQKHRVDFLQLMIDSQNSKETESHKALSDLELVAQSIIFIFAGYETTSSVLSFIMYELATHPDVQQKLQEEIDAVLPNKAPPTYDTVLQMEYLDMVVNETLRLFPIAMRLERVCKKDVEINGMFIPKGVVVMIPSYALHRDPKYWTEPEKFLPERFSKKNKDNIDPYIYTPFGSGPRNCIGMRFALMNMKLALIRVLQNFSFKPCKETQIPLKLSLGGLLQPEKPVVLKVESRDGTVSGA
# Chain of Nucleotide-binding oligomerization domain-containing protein 2 (Q9HC29 whole entry, the tested form may be a part): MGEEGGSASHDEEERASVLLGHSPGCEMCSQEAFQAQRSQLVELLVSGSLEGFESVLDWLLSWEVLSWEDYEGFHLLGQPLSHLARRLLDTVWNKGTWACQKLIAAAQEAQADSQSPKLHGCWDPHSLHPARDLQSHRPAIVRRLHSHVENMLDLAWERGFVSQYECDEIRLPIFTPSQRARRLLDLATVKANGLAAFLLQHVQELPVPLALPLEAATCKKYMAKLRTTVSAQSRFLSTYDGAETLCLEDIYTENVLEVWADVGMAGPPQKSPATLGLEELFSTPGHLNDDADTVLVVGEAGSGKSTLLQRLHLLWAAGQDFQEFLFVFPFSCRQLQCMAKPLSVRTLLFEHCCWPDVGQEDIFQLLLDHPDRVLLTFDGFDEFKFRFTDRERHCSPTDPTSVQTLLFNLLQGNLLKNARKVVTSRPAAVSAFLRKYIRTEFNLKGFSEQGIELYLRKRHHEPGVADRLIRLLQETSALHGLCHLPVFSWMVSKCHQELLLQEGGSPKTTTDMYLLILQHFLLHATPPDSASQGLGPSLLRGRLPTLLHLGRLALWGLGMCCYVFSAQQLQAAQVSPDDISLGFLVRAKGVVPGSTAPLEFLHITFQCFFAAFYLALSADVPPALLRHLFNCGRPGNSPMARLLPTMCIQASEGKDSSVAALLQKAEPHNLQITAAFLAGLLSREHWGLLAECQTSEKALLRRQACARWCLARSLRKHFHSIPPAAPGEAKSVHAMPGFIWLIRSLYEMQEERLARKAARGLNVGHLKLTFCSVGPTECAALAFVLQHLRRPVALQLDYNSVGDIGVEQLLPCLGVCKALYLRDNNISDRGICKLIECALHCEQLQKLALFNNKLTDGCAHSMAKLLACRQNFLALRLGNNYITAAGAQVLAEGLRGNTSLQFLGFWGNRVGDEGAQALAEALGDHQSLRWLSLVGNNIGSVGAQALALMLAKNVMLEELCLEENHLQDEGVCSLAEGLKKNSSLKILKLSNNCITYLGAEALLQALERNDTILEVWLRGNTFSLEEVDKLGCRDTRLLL
# Chain of Cytochrome P450 2D6 (P10635 whole entry): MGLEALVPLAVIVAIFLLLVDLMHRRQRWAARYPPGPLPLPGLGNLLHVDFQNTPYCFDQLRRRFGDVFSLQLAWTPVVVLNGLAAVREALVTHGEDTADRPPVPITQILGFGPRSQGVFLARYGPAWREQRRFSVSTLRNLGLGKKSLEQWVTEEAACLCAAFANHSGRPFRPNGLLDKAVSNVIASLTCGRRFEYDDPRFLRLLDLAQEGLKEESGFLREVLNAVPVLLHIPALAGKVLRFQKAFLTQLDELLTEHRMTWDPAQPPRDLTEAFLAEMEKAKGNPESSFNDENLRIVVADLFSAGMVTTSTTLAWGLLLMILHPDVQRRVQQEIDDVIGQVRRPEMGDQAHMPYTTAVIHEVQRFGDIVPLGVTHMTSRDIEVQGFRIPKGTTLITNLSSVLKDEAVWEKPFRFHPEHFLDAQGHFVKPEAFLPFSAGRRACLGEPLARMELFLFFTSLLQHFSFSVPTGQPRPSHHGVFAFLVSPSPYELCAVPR
# Chain of FAD-linked sulfhydryl oxidase ALR (P55789 whole entry): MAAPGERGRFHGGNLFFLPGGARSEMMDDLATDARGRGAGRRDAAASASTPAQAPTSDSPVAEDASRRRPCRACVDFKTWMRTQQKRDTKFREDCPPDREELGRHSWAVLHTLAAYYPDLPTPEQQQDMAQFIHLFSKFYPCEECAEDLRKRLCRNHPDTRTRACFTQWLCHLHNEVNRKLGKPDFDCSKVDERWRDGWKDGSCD
smiles,measurement,setting,value
C[N+]1(CCOC(=O)C2(c3ccccc3)CCCC2)CCCCC1,IC50,[1],3.57 µM (active)
same,IC50,[2],3.89 µM (active)
CCCN(CCC)CCNC(=O)C1CCN(Cc2nc(-c3ccc(Cl)cc3)oc2C)CC1,IC50,Vero [3],10.8 µM (active)
same,CC50,Vero [4],> 25 µM (active)
COc1cc(NC(=O)C2CCN(S(=O)(=O)c3cccc4nonc34)CC2)cc(OC)c1,AC50,Cytochrome P450 2C9,inconclusive
same,AC50,Cytochrome P450 2C19,15.8 µM (inconclusive)
CN1C(=O)c2cc(NC(=O)c3cccc(F)c3)ccc2OC[C@H]2O[C@H](CC(=O)O)CC[C@H]21,AC50,[5],366 nM (active)
CN1CCN(c2ncncc2-c2ccc(N(C)C)cc2)CC1,AC50,Cytochrome P450 2C9,inconclusive
same,AC50,Cytochrome P450 3A4,2 µM (inconclusive)
Cc1c(Nc2c3ccccc3nc3ccccc23)c(=O)n(-c2ccccc2)n1C,IC50,HEK293 [6],> 20 µM (inactive)
same,EC50,[7],> 20 µM (inactive)
same,EC50,HEK293 [8],> 20 µM (inactive)
same,IC50,HEK293 [9],> 20 µM (inactive)
same,IC50,HEK293 [10],> 20 µM (inactive)
same,IC50,HEK293 [11],> 20 µM (inactive)
CN1CCN(S(=O)(=O)c2ccc(C3CCCCC3)cc2)CC1,IC50,[1],16.8 µM (active)
same,IC50,[2],9.2 µM (active)
CNc1nc(-c2ccc(N(C)C)cc2)nc2ccccc12,AC50,Cytochrome P450 2C9,inconclusive
Cc1ccccc1N(CC(=O)NC1CCCC1)C(=O)c1oc(C(C)(C)C)cc1C,IC50,[12],3.52 µM (active)
same,IC50,Orexin receptor type 2 [13],> 88.8 µM (inactive)
same,IC50,[14],0.264 µM (active)
same,IC50,[15],> 49.8 µM (inactive)
same,IC50,CHO-K1,> 66.2 µM (inactive)
same,IC50,Orexin receptor type 2 [16],> 50 µM (inactive)
Cc1ccc(-n2nnnc2CNC(=O)c2ccc([N+](=O)[O-])o2)cc1C,IC50,cells [17],8.5 µM (active)
same,CC50,[18],22.5 µM (active)
same,CC50,[19],12.1 µM (active)
same,AC50,[20],9.72 µM (active)
same,EC50,[21],> 30 µM (not active)
same,EC50,[22],145 nM (active)
COc1ccccc1Nc1ncnc2c1c(C)c(C)n2CCCN(C)C,IC50,Vero [3],23.2 µM (active)
same,CC50,Vero [4],> 25 µM (active)
same,EC50,[21],4.51 µM (active)
same,EC50,[22],156 nM (active)
OCc1ccc(-c2nn(Cc3ccccc3)c3ccccc23)o1,AC50,Cytochrome P450 2D6,39.8 µM (inconclusive)
same,AC50,Cytochrome P450 2C19,10 µM (inconclusive)
same,AC50,[5],547 nM (active)
same,AC50,[23],10 µM (active)
C[N+](C)(C)c1ccccc1,IC50,[1],3.33 µM (active)
same,IC50,[2],2.16 µM (active)
CC[C@]12c3[nH]c4cc(-c5ccco5)ccc4c3CCN1C(=O)[C@@H](CC(=O)NC/C=C(\C)CCC=C(C)C)C[C@@H]2C(=O)N1CCN(C(=O)c2ccco2)CC1,IC50,[12],3.23 µM (active)
same,IC50,Orexin receptor type 2 [13],39.5 µM (inactive)
same,IC50,[14],1.07 µM (active)
same,IC50,[15],> 49.8 µM (inactive)
same,IC50,CHO-K1,> 66.2 µM (inactive)
same,IC50,Orexin receptor type 2 [16],2.05 µM (active)
CCOc1ccccc1-n1nnnc1SCC(=O)Nc1cc(C)on1,AC50,Cytochrome P450 2C9,inconclusive
same,AC50,Cytochrome P450 3A4,3.98 µM (inconclusive)
Cc1cc(SCC(=O)c2ccc3c(c2)OCO3)nc2ccccc12,EC50,[24],10.4 µM (not active)
same,IC50,[12],18.8 µM (inactive)
same,IC50,Orexin receptor type 2 [13],14.1 µM (inactive)
same,EC50,[25],10.2 µM (inactive)
same,IC50,[14],3.34 µM (active)
same,IC50,[15],> 49.7 µM (inactive)
same,EC50,[26],> 79.4 µM (not active)
same,IC50,CHO-K1,> 66.2 µM (inactive)
same,IC50,Orexin receptor type 2 [16],11.2 µM (inactive)
Cc1ccc2c(c1)cc(C(=O)NCc1ccccc1)n2C,EC50,cells [27],> 350 µM (not active)
same,IC50,Vero [3],17.8 µM (active)
same,CC50,[28],44.9 µM (active)
same,IC50,cells [29],24 µM (active)
